Data taken from PubChem BioAssay AID2060512 (Molecular Pharmacology Branch, DTP, NCI, 2025).
Values belong to the compound of their own block, whether it stands above or below them.

System: 186277-243-T-J2-PDC complex spheroid viability
Assay: Anticancer human tumor 186277-243-T-J2-PDC patient-derived colon adenocarcinoma cell line growth inhibition [GQUAD]
Details: for IC50: curve of first compound; for viability, T/C: stronger effect = lower value
Procedure, shortened: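 Tumor cells were grown as complex spheroids with HUVEC endothelial cells and mesenchymal stem cells as stroma. G-quadruplex stabilizers were combined with targeted agents over half-log dilutions from near the clinical Cmax, or from 10 microM.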

[1] = second compound 0.0316 µM, first compound 0.0316 µM
[2] = second compound 0.0316 µM, first compound 0.1 µM
[3] = second compound 0.0316 µM, first compound 0.316 µM
[4] = second compound 0.0316 µM, first compound 1 µM
[5] = second compound 0.0316 µM, first compound 3.16 µM
[6] = second compound 0.0316 µM, first compound 10 µM
[7] = second compound 0.1 µM, first compound 0.0316 µM
[8] = second compound 0.1 µM, first compound 0.1 µM
[9] = second compound 0.1 µM, first compound 0.316 µM
[10] = second compound 0.1 µM, first compound 1 µM
[11] = second compound 0.1 µM, first compound 3.16 µM
[12] = second compound 0.1 µM, first compound 10 µM
[13] = second compound 0.316 µM, first compound 0.0316 µM
[14] = second compound 0.316 µM, first compound 0.1 µM
[15] = second compound 0.316 µM, first compound 0.316 µM
[16] = second compound 0.316 µM, first compound 1 µM
[17] = second compound 0.316 µM, first compound 3.16 µM
[18] = second compound 0.316 µM, first compound 10 µM
[19] = second compound 1 µM, first compound 0.0316 µM
[20] = second compound 1 µM, first compound 0.1 µM
[21] = second compound 1 µM, first compound 0.316 µM
[22] = second compound 1 µM, first compound 1 µM
[23] = second compound 1 µM, first compound 3.16 µM
[24] = second compound 1 µM, first compound 10 µM
[25] = second compound 3.16 µM, first compound 0.0316 µM
[26] = second compound 3.16 µM, first compound 0.1 µM
[27] = second compound 3.16 µM, first compound 0.316 µM
[28] = second compound 3.16 µM, first compound 1 µM
[29] = second compound 3.16 µM, first compound 3.16 µM
[30] = second compound 3.16 µM, first compound 10 µM
[31] = second compound 10 µM, first compound 0.0316 µM
[32] = second compound 10 µM, first compound 0.1 µM
[33] = second compound 10 µM, first compound 0.316 µM
[34] = second compound 10 µM, first compound 1 µM
[35] = second compound 10 µM, first compound 3.16 µM
[36] = second compound 10 µM, first compound 10 µM
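Note: spheroids exposed to drugs for 7 days.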
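Throughout, for viability, T/C: 100% = DMSO vehicle control viability.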

IC50 (second compound 0.0316 µM): > 10000 nM
IC50 (second compound 0.1 µM): > 10000 nM
IC50 (second compound 0.316 µM): > 10000 nM
IC50 (second compound 1 µM): > 10000 nM
IC50 (second compound 3.16 µM): < 31.6 nM
IC50 (second compound 10 µM): > 10000 nM
SMILES: C=CC(=O)N1CCN(c2nc(=O)n(-c3c(C)ccnc3C(C)C)c3nc(-c4c(O)cccc4F)c(F)cc23)C(C)C1 (stereo unspecified) + Cc1cnc(CNC(=O)c2c(=O)c3ccc(N4CCCN(C)CC4)nc3n3c2sc2ccccc23)cn1
viability, T/C [1]: 89.2%
viability, T/C [2]: 106%
viability, T/C [3]: 105%
viability, T/C [4]: 94.1%
viability, T/C [5]: 109%
viability, T/C [6]: 88.6%
viability, T/C [7]: 84.6%
viability, T/C [8]: 91.3%
viability, T/C [9]: 99%
viability, T/C [10]: 83.7%
viability, T/C [11]: 96.1%
viability, T/C [12]: 76.1%
viability, T/C [13]: 81.5%
viability, T/C [14]: 58.7%
viability, T/C [15]: 75.7%
viability, T/C [16]: 75.3%
viability, T/C [17]: 75.8%
viability, T/C [18]: 66.4%
viability, T/C [19]: 59.9%
viability, T/C [20]: 62%
viability, T/C [21]: 65.6%
viability, T/C [22]: 66.7%
viability, T/C [23]: 68.4%
viability, T/C [24]: 66.1%
viability, T/C [25]: 50.3%
viability, T/C [26]: 47.4%
viability, T/C [27]: 52.4%
viability, T/C [28]: 53.7%
viability, T/C [29]: 62.8%
viability, T/C [30]: 46%
viability, T/C [31]: 53.2%
viability, T/C [32]: 46.5%
viability, T/C [33]: 49.3%
viability, T/C [34]: 56.2%
viability, T/C [35]: 61.3%
viability, T/C [36]: 47.6%

IC50 (second compound 0.0316 µM): 5.88 nM
IC50 (second compound 0.1 µM): 7.11 nM
IC50 (second compound 0.316 µM): 3.96 nM
IC50 (second compound 1 µM): < 0.999 nM
IC50 (second compound 3.16 µM): < 0.999 nM
IC50 (second compound 10 µM): < 0.999 nM
SMILES: CCc1c2c(nc3ccc(O)cc13)-c1cc3c(c(=O)n1C2)COC(=O)[C@]3(O)CC + Cc1cnc(CNC(=O)c2c(=O)c3ccc(N4CCCN(C)CC4)nc3n3c2sc2ccccc23)cn1
viability, T/C (second compound 0.0316 µM, first compound 0.000999 µM): 90.8%
viability, T/C (second compound 0.0316 µM, first compound 0.00316 µM): 56%
viability, T/C (second compound 0.0316 µM, first compound 0.00999 µM): 46.3%
viability, T/C [1]: 27.8%
viability, T/C (second compound 0.0316 µM, first compound 0.0999 µM): 23.3%
viability, T/C [3]: 17.6%
viability, T/C (second compound 0.1 µM, first compound 0.000999 µM): 79.3%
viability, T/C (second compound 0.1 µM, first compound 0.00316 µM): 56.8%
viability, T/C (second compound 0.1 µM, first compound 0.00999 µM): 53.2%
viability, T/C [7]: 24.5%
viability, T/C (second compound 0.1 µM, first compound 0.0999 µM): 23.4%
viability, T/C [9]: 13.9%
viability, T/C (second compound 0.316 µM, first compound 0.000999 µM): 60.5%
viability, T/C (second compound 0.316 µM, first compound 0.00316 µM): 53.7%
viability, T/C (second compound 0.316 µM, first compound 0.00999 µM): 40.9%
viability, T/C [13]: 31.9%
viability, T/C (second compound 0.316 µM, first compound 0.0999 µM): 30.1%
viability, T/C [15]: 16.9%
viability, T/C (second compound 1 µM, first compound 0.000999 µM): 44.8%
viability, T/C (second compound 1 µM, first compound 0.00316 µM): 37.6%
viability, T/C (second compound 1 µM, first compound 0.00999 µM): 38.3%
viability, T/C [19]: 31.8%
viability, T/C (second compound 1 µM, first compound 0.0999 µM): 29.5%
viability, T/C [21]: 4.66%
viability, T/C (second compound 3.16 µM, first compound 0.000999 µM): 33.5%
viability, T/C (second compound 3.16 µM, first compound 0.00316 µM): 39.9%
viability, T/C (second compound 3.16 µM, first compound 0.00999 µM): 36.5%
viability, T/C [25]: 27.9%
viability, T/C (second compound 3.16 µM, first compound 0.0999 µM): 25.4%
viability, T/C [27]: 1.29%
viability, T/C (second compound 10 µM, first compound 0.000999 µM): 40.2%
viability, T/C (second compound 10 µM, first compound 0.00316 µM): 32.5%
viability, T/C (second compound 10 µM, first compound 0.00999 µM): 31.1%
viability, T/C [31]: 24.7%
viability, T/C (second compound 10 µM, first compound 0.0999 µM): 23.3%
viability, T/C [33]: 0.64%

IC50 (second compound 0.0316 µM): 985 nM
IC50 (second compound 0.1 µM): 1080 nM
IC50 (second compound 0.316 µM): 1630 nM
IC50 (second compound 1 µM): < 31.6 nM
IC50 (second compound 3.16 µM): 169 nM
IC50 (second compound 10 µM): < 31.6 nM
SMILES: COc1cc(C2c3cc4c(cc3C(OC3OC5COC(C)OC5C(O)C3O)C3COC(=O)C23)OCO4)cc(OC)c1O (stereo unspecified) + Cc1cnc(CNC(=O)c2c(=O)c3ccc(N4CCCN(C)CC4)nc3n3c2sc2ccccc23)cn1
viability, T/C [1]: 105%
viability, T/C [2]: 93.9%
viability, T/C [3]: 78.2%
viability, T/C [4]: 45.1%
viability, T/C [5]: 33.3%
viability, T/C [6]: 15.8%
viability, T/C [7]: 70.8%
viability, T/C [8]: 82.5%
viability, T/C [9]: 69.3%
viability, T/C [10]: 46.5%
viability, T/C [11]: 37.3%
viability, T/C [12]: 20%
viability, T/C [13]: 80.8%
viability, T/C [14]: 69.8%
viability, T/C [15]: 55.9%
viability, T/C [16]: 53.7%
viability, T/C [17]: 53.3%
viability, T/C [18]: 20.3%
viability, T/C [19]: 43.6%
viability, T/C [20]: 50.8%
viability, T/C [21]: 57.5%
viability, T/C [22]: 44.9%
viability, T/C [23]: 42.3%
viability, T/C [24]: 20%
viability, T/C [25]: 50.9%
viability, T/C [26]: 51%
viability, T/C [27]: 51.4%
viability, T/C [28]: 38.8%
viability, T/C [29]: 30.7%
viability, T/C [30]: 19.6%
viability, T/C [31]: 42.7%
viability, T/C [32]: 35%
viability, T/C [33]: 45%
viability, T/C [34]: 47%
viability, T/C [35]: 33.7%
viability, T/C [36]: 17.7%
